In test [1] the test system is Staphylococcus aureus ATCC 6538. Description: challenge test, germ count by Agar plates method. The conditions noted are these: 8% aqueous suspension. Format: cell-based. As for the experimental part:
(§1) A standard procedure to measure the anti-microbial activity of substances was used (challenge tests). A suspension of test organisms (10^5 to 10^6 germs/ml) is inoculated into a recipient containing already the substance to be tested. Samples of the inoculated suspension are taken and the number of germs is measured thanks to the Agar plates method. Germ counts is performed at t=0, t=24 h after the inoculation, t=48 h after the inoculation, t=7 days after the inoculation, t=14 days after the inoculation.
(§2) Sterile water containing 8% w/w of treated and untreated carriers were each investigated.

Test [2] deals with Escheria coli ATCC8739. Description: challenge test, germ count by Agar plates method. Format: cell-based. As to conditions: 8% aqueous suspension. As for the experimental part: as §1, §2
Test [3] concerns Pseudomonas aeruginosa ATCC 9027. Description: challenge test, germ count by Agar plates method. The format is cell-based. As to conditions: 8% aqueous suspension. As for the experimental part:
as §1, §2

Test [4] has as its system Candida albicans ATCC 10231. Description: challenge test, germ count by Agar plates method. Format: cell-based. As to conditions: 8% aqueous suspension. On the procedure: as §1, §2
Test [5] has as its system Aspergillus niger ATCC 16404. The experiment in a line: challenge test, germ count by Agar plates method. As to conditions: 8% aqueous suspension. The format is cell-based. As for the experimental part:
as §1, §2

For test [6] the following is noted: over the entire pH range; cited from earlier work.

For the molecule silver oxide [0.02% Ag2O], the “Germs Number/ml after 24 h” value is on record as 0 germs/ml in test [1] (24 h after inoculation); 0 germs/ml in test [2] (24 h after inoculation); 0 germs/ml in test [3] (24 h after inoculation); 8.3 · 10^2 germs/ml in test [4] (24 h after inoculation); 3.5 · 10^5 germs/ml in test [5] (24 h after inoculation). For the same molecule, the “Germs Number/ml after 48 h” value in test [1] (48 h after inoculation) was 0 germs/ml; in test [2] (48 h after inoculation), 0 germs/ml; in test [3] (48 h after inoculation), 0 germs/ml; in test [4] (48 h after inoculation), 0 germs/ml; in test [5] (48 h after inoculation), 1.6 · 10^5 germs/ml. The “Germs Number/ml after 14 d” value in test [1] (14 d after inoculation) is given as 0 germs/ml; in test [2] (14 d after inoculation), 0 germs/ml; in test [3] (14 d after inoculation), 0 germs/ml; in test [4] (14 d after inoculation), 0 germs/ml; in test [5] (14 d after inoculation) it was 2.2 · 10^4 germs/ml. Besides, the “Germs Number/ml after Start” value in test [1] (t=0) is listed as 2.7 · 10^6 germs/ml; in test [2] (t=0), 2.0 · 10^6 germs/ml; in test [3] (t=0), 2.2 · 10^5 germs/ml; in test [4] (t=0), 9.0 · 10^2 germs/ml; in test [5] (t=0), 4.5 · 10^5 germs/ml. Besides, the “Germs Number/ml after 7 d” value in test [2] (7 d after inoculation) is 0 germs/ml; in test [3] (7 d after inoculation), 0 germs/ml; in test [4] (7 d after inoculation) it was 0 germs/ml; in test [5] (7 d after inoculation), 1.0 · 10^5 germs/ml.

With `O=c1c(O)c(-c2ccc(O)c(O)c2)oc2cc(O)cc(O)c12` [Quercetin, 3,3′,4′,5,7-pentahydroxyflavone], in test [6], the antioxidant action entry is on record as “the greatest activity amongst the structures investigated”.

The record behind these values is patent US20060210500A1, “Formulations” (MERCK PATENT GMBH, priority 2003, published 2006).
